This note sets out measurements from patent US11478478B2, “2,3-disubstituted 1-acyl-4-amino-1,2,3,4-tetrahydroquinoline derivatives and their use as bromodomain inhibitors” (GLAXOSMITHKLINE INTELLECTUAL PROPERTY (NO.2) LIMITED, priority 2013, dated 2022).

Each structure is given as a SMILES string. Structures can show the parent of a compound that is named as a salt.

The assay addresses T1, BRD4 BD2 (Homo sapiens, UniProt O60885, Y97A).
T1 construct: BRD4 (1-477) (Y97A) and (Y390A); made in house; host or cells: E. coli (pET15b vector)
Description: TR-FRET binding assay, BRD4 BD2 (BD1-mutated protein). The conditions noted are these: read-out: pIC50 in the BRD4 BD2 assay (converted). The protocol:
Time Resolved Fluorescence Resonance Energy Transfer (TR-FRET) Assay Binding was assessed using a time resolved fluorescent resonance energy transfer binding assay. This utilises a 6 His purification tag at the N-terminal of the proteins as an epitope for an anti-6 His antibody labeled with Europium chelate (PerkinElmer AD0111) allowing binding of the Europium to the proteins which acts as the donor fluorophore. A small molecule, high affinity binder of the bromodomains BRD2, BRD3, BRD4 and BRDT has been labeled with Alexa Fluor647 (Reference Compound X) and this acts as the acceptor in the FRET pair.
In the absence of a competing compound, excitation of the Europium causes the donor to emit at λ618 nm which excites the Alexa labelled bromodomain binding compound leading to an increased energy transfer that is measurable at λ647 nM. In the presence of a sufficient concentration of a compound that can bind these proteins, the interaction is disrupted leading to a quantifiable drop in fluorescent resonance energy transfer.
The binding of the compounds of formula (I) to Bromodomains BRD2, BRD3, BRD4 and BRDT was assessed using mutated proteins to detect differential binding to either Binding Domain 1 (BD1) or Binding Domain 2 (BD2) on the bromodomain. These single residue mutations in the acetyl lysine binding pocket greatly lower the affinity of the fluoroligand (Reference Compound X) for the mutated domain (>1000 fold selective for the non-mutated domain). Therefore in the final assay conditions, binding of the fluoroligand to the mutated domain cannot be detected and subsequently the assay is suitable to determine the binding of compounds to the single non-mutated bromodomain.
Recombinant Human Bromodomains [(BRD2 (1-473) (Y113A) and (Y386A), BRD3 (1-435) (Y73A) and (Y348A) BRD4 (1-477) (Y97A) and (Y390A) and BRDT (1-397) (Y66A) and (Y309A)] were expressed in E. coli cells (in pET15b vector for BRD2/3/4 and in pET28a vector for BRDT) with a 6-His tag at the N-terminal. The His-tagged Bromodomain pellet was resuspended in 50 mM HEPES (pH7.5), 300 mM NaCl, 10 mM imidazole & 1 μl/ml protease inhibitor cocktail and extracted from the E. coli cells using sonication and purified using a nickel sepharose high performance column, the proteins were washed and then eluted with a linear gradient of 0-500 mM imidazole with buffer 50 mM HEPES (pH7.5), 150 mM NaCl, 500 mM imidazole, over 20 column volumes. Final purification was completed by Superdex 200 prep grade size exclusion column. Purified protein was stored at −80° C. in 20 mM HEPES pH 7.5 and 100 mM NaCl. Protein identity was confirmed by peptide mass fingerprinting and predicted molecular weight confirmed by mass spectrometry.
All assay components were dissolved in buffer composition of 50 mM HEPES pH7.4, 50 mM NaCl, 5% Glycerol, 1 mM DTT and 1 mM CHAPS. The final concentration of bromodomain proteins were 10 nM and the Alexa Fluor647 ligand was at Kd. These components were premixed and 5 μl of this reaction mixture was added to all wells containing 50 nl of various concentrations of test compound or DMSO vehicle (0.5% DMSO final) in Greiner 384 well black low volume microtitre plates and incubated in dark for 30 minutes at rt. 5 μl of detection mixture containing 1.5 nM final concentration anti-6His Europium chelate was added to all wells and a further dark incubation of at least 30 minutes was performed. Plates were then read on the Envision platereader, (λex=317 nm, donor λem=615 nm; acceptor λem=665 nm; Dichroic LANCE dual). Time resolved fluorescent intensity measurements were made at both emission wavelengths and the ratio of acceptor/donor was calculated and used for data analysis. All data was normalized to the mean of 16 high (inhibitor control—Example 11 of WO 2011/054846A1) and 16 low (DMSO) control wells on each plate. A four parameter curve fit of the following form was then applied: y=a+((b−a)/(1+(10^/10^)^d) […]
Take `CC(=O)N1c2ccc(F)cc2[C@H](Nc2ccc(C#N)cc2)[C@@H](C)[C@@H]1C1CC1` (racemic) [Example 161, rac-4-(((2S,3R,4R)-1-acetyl-2-cyclopropyl-6-fluoro-3-methyl-1,2,3,4-tetrahydroquinolin-4-yl)amino)benzonitrile]: the IC50 is 100 nM.
Consider `CC(=O)N1c2ccc(C3=CCOCC3)cc2[C@H](Nc2ncccn2)[C@@H](C)[C@@H]1C1CC1` (racemic) [Example 177, rac-1-((2S,3R,4R)-2-cyclopropyl-6-(3,6-dihydro-2H-pyran-4-yl)-3-methyl-4-(pyrimidin-2-ylamino)-3,4-dihydroquinolin-1(2H)-yl)ethanone, formic acid salt], for which the IC50 was 100 nM.
`CC(=O)N1c2ccc(C3=CCOCC3)cc2[C@H](Nc2ccc(C#N)cn2)[C@@H](C)[C@@H]1C1CC1` (racemic) [Example 181, rac-6-(((2S,3R,4R)-1-acetyl-2-cyclopropyyl-6-(3,6-dihydro-2H-pyran-4-yl)-3-methyl-1,2,3,4-tetrahydroquinolin-4-yl)amino)nicotinonitrile]: the IC50 is 100 nM.
For `CC(=O)N1c2ccc(C3CCNCC3)cc2[C@H](Nc2cnc(C)cn2)[C@@H](C)[C@@H]1C` (racemic) [Example 183, rac-1-((2S,3R,4R)-2,3-dimethyl-4-((5-methylpyrazin-2-yl)amino)-6-(piperidin-4-yl)-3,4-dihydroquinolin-1(2H)-yl)ethanone, hydrochloride] the value was 1000 to 100000 nM.
As for `CC(=O)N1c2ccc(C3CCNCC3)cc2[C@H](Nc2ccc(C#N)cn2)[C@@H](C)[C@@H]1C` (racemic) [Example 187, rac-6-(((2S,3R,4R)-1-acetyl-2,3-dimethyl-6-(piperidin-4-yl)-1,2,3,4-tetrahydroquinolin-4-yl)amino)nicotinonitrile], the figure is 1000 to 100000 nM; as for `CNC(=O)c1ccc(N[C@H]2c3cc(C4CCNCC4)ccc3N(C(C)=O)[C@@H](C)[C@@H]2C)cc1` (racemic) [Example 188, rac-4-(((2S,3R,4R)-1-acetyl-2,3-dimethyl-6-(piperidin-4-yl)-1,2,3,4-tetrahydroquinolin-4-yl)amino)-N-methylbenzamide], 1000 to 100000 nM; as for `CC(=O)N1c2ccc(C3=CCNCC3)cc2[C@H](Nc2ccc(C#N)cc2)[C@@H](C)[C@@H]1C1CC1` (racemic) [Example 192, rac-4-(((2S,3R,4R)-1-acetyl-2-cyclopropyl-3-methyl-6-(1,2,3,6-tetrahydropyridin-4-yl)-1,2,3,4-tetrahydroquinolin-4-yl)amino)benzonitrile], 100 nM.
As for `CC(=O)N1c2ccc(N3CCOCC3)cc2[C@H](Nc2cccc(O)n2)[C@@H](C)[C@@H]1C1CC1` (racemic) [Example 210, rac-1-((2S,3R,4R)-2-cyclopropyl-4-((6-hydroxypyridin-2-yl)amino)-3-methyl-6-morpholino-3,4-dihydroquinolin-1(2H)-yl)ethanone], the figure is 1000 to 100000 nM; as for `CC(=O)N1c2ccc(N3CCOCC3)cc2[C@H](Nc2cnc(C)cn2)[C@@H](C)[C@@H]1C1CC1` (racemic) [Example 211, rac-1-((2S,3R,4R)-2-cyclopropyl-3-methyl-4-((5-methylpyrazin-2-yl)amino)-6-morpholino-3,4-dihydroquinolin-1(2H)-yl)ethanone], 1000 to 100000 nM.
As for `CC[C@H]1[C@H](C)[C@@H](Nc2cnc(C)cn2)c2cc(N3CCNCC3)ccc2N1C(C)=O` (racemic) [Example 218, rac-1-((2S,3R,4R)-2-ethyl-3-methyl-4-((5-methylpyrazin-2-yl)amino)-6-(piperazin-1-yl)-3,4-dihydroquinolin-1(2H)-yl)ethanone], the IC50 is 1000 to 100000 nM.
As for `CC[C@H]1[C@H](C)[C@@H](Nc2ccc(C(=O)NC)cc2)c2cc(N3CCNCC3)ccc2N1C(C)=O` (racemic) [Example 220, rac-4-(((2S,3R,4R)-1-acetyl-2-ethyl-3-methyl-6-(piperazin-1-yl)-1,2,3,4-tetrahydroquinolin-4-yl)amino)-N-methylbenzamide], the figure is 1000 to 100000 nM; as for `CC[C@H]1[C@H](C)[C@@H](Nc2cnc(C#N)cn2)c2cc(N3CCNCC3)ccc2N1C(C)=O` (racemic) [Example 221, rac-5-(((2S,3R,4R)-1-acetyl-2-ethyl-3-methyl-6-(piperazin-1-yl)-1,2,3,4-tetrahydroquinolin-4-yl)amino)pyrazine-2-carbonitrile], 1000 to 100000 nM.
For `CC(=O)N1c2ccc(N3CCN[C@@H](C)C3)cc2[C@H](Nc2cnc(C)cn2)[C@@H](C)[C@@H]1C1CC1` (racemic) [Example 227, 1-((rac-2S,3R,4R)-2-cyclopropyl-3-methyl-6-((S)-3-methylpiperazin-1-yl)-4-((5-methylpyrazin-2-yl)amino)-3,4-dihydroquinolin-1(2H)-yl)ethanone] the value was 1000 to 100000 nM.
As for `CNC(=O)c1ccc(N[C@H]2c3cc(N4CCN[C@@H](C)C4)ccc3N(C(C)=O)[C@@H](C3CC3)[C@@H]2C)cc1` (racemic) [Example 228, 4-(((rac-2S,3R,4R)-1-acetyl-2-cyclopropyl-3-methyl-6-((S)-3-methylpiperazin-1-yl)-1,2,3,4-tetrahydroquinolin-4-yl)amino)-N-methylbenzamide], the IC50 was 1000 to 100000 nM.
For `CNC(=O)c1ccc2c(c1)[C@H](Nc1ccc(C#N)cn1)[C@@H](C)[C@H](C)N2C(C)=O` (racemic) [Example 230, rac-(2S,3R,4R)-1-acetyl-4-((5-cyanopyridin-2-yl)amino)-N,2,3-trimethyl-1,2,3,4-tetrahydroquinoline-6-carboxamide] the value was 100 nM; for `CNC(=O)c1ccc2c(c1)[C@H](Nc1cccc(C)n1)[C@@H](C)[C@H](C)N2C(C)=O` (racemic) [Example 231, rac-(2S,3R,4R)-1-acetyl-N,2,3-trimethyl-4-((6-methylpyridin-2-yl)amino)-1,2,3,4-tetrahydroquinoline-6-carboxamide], 100 nM; for `CC[C@@H]1[C@@H](C)[C@H](Nc2cccc(C)n2)c2cc(C(=O)NC)ccc2N1C(C)=O` (racemic) [Example 235, rac-(2S,3R,4R)-1-acetyl-2-ethyl-N,3-dimethyl-4-((6-methylpyridin-2-yl)amino)-1,2,3,4-tetrahydroquinoline-6-carboxamide], 100 nM.
For `CC[C@H]1[C@H](C)[C@@H](Nc2ccc(C#N)cn2)c2cc(C(=O)NC)ccc2N1C(C)=O` (racemic) [Example 237, rac-(2S,3R,4R)-1-acetyl-4-((5-cyanopyridin-2-yl)amino)-2-ethyl-N,3-dimethyl-1,2,3,4-tetrahydroquinoline-6-carboxamide] the value was 100 nM.
As for `CNC(=O)c1ccc2c(c1)[C@H](Nc1nccc(C)n1)[C@@H](C)[C@H](C1CC1)N2C(C)=O` (racemic) [Example 240, rac-(2S,3R,4R)-1-acetyl-2-cyclopropyl-N,3-dimethyl-4-((4-methylpyrimidin-2-yl)amino)-1,2,3,4-tetrahydroquinoline-6-carboxamide], the figure is 100 nM.
On to `CNC(=O)c1ccc2c(c1)[C@H](Nc1ccc(C#N)cc1)[C@@H](C)[C@H](C1CC1)N2C(C)=O` (racemic) [Example 243, rac-(2S,3R,4R)-1-acetyl-4-((4-cyanophenyl)amino)-2-cyclopropyl-N,3-dimethyl-1,2,3,4-tetrahydroquinoline-6-carboxamide], for which the IC50 is 100 nM.
